The values below come from PMC12036557, “Functional Imaging of CYP3A4 at Multiple Dimensions Using an AI‐Driven High Performance Fluorogenic Substrate” (Small (Weinheim an Der Bergstrasse, Germany), 2025).

A word on the AUC(0-inf): it is the area under the concentration-time curve extrapolated to infinity. As a reminder, the half-life is how long it takes for the measured level to halve. By bioavailability is commonly meant the share of a dose that reaches the circulation, judged against a reference dose that is usually intravenous. As a reminder, the IC50 is the concentration that inhibits the measured activity by half.

Read-outs that look alike come from different tables or passages of the source.

For data set [1], the target named is T1, CYP3A4 (Homo sapiens, UniProt P08684). Nature of the data set: Fluorescence response of NFa toward hCYP3A4. In kind it is biochemical. On the set-up: purchased Cypex.
Data set [2] is described as follows: Pharmacokinetics and oral bioavailability of NFa. In kind it is in vivo. The conditions noted are these: mice.
A short description of data set [3]: Safety test of NFa in healthy mice. The format is in vivo, C57BL/6J mice. The settings on record: oral 100 mg kg^−1 per day, 14 consecutive days.
The subject of another data set is NCM460 cells. The data set can be described thus: Cell-membrane permeability in NCM460 cells. In kind it is cell-based. The conditions noted are these: 20 μM, 60 min.
For data set [4], the target named is T1, CYP3A4. The data set can be described thus: Enzyme kinetic analyses of NFs 4-hydroxylation by hCYP3A4. The format is biochemical. On the set-up: purchased Cypex.
A further data set concerns the target T2, aldehyde oxidase (AO) (Homo sapiens, UniProt Q06278).
T2 construct: The oxidative metabolism of NFa in human liver cytosol (HLC) without NADPH; from tissue; host or cells: human liver cytosol
T2 sequence (Q06278 1-1338): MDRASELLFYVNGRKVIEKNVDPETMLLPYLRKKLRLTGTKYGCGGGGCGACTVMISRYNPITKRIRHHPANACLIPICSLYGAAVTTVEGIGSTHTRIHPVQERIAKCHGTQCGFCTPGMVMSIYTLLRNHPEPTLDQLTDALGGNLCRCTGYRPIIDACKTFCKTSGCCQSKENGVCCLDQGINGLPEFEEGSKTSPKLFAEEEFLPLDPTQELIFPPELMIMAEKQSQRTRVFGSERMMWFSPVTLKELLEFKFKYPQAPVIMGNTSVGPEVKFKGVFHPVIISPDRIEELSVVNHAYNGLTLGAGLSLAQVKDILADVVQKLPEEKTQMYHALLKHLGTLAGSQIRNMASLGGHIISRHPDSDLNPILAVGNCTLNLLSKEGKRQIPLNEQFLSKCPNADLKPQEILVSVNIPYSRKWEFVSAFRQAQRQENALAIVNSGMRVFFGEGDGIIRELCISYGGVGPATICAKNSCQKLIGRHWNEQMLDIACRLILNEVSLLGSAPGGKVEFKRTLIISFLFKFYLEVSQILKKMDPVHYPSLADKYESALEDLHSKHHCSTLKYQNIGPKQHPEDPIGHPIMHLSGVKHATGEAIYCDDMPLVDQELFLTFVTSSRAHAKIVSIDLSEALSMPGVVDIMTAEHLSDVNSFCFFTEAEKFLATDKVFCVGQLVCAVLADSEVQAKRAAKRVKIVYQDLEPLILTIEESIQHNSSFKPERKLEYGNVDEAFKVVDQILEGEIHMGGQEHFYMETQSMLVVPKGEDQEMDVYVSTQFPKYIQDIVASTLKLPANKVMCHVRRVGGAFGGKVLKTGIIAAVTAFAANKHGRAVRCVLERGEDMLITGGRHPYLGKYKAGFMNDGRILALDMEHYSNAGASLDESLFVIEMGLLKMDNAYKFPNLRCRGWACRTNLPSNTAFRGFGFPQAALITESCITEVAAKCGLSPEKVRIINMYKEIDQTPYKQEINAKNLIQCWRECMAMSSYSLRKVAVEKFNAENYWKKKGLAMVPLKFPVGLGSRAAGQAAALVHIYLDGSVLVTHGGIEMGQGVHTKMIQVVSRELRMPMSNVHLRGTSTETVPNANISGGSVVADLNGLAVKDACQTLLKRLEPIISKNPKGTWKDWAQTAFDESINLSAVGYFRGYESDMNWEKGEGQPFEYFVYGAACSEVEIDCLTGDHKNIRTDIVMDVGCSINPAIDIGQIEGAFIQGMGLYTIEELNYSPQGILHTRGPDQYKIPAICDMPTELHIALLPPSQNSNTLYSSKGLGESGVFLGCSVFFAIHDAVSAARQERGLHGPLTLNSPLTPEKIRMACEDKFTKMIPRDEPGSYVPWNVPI
Nature of the data set: Oxidative metabolism of NFa in AO (human liver cytosol). The settings on record: NFa 20 μM, human liver cytosol without NADPH, 30 min. In kind it is in vitro ADME.

Data set [5] addresses T1, CYP3A4. The data set can be described thus: Functional imaging of hCYP3A4 in living cells. The conditions noted are these: MCF‐7 and Hep3B cells. In kind it is cell-based.
A short description of data set [6]: Optical properties, photostability and pH stability of NFa and 4-HNFa. The format is physicochemical. On the set-up: maximum UV absorption: unit not given here.
A further data set addresses T3, P-gp (Homo sapiens, UniProt P08183).
T3 construct: expressed in transfected cells; host or cells: MDR1-MDCK
Nature of the data set: Identification of the P-gp substrates in living cells (MDR1-MDCK). The format is cell-based. The settings on record: with/without verapamil.

Data set [7] relates to panel of human recombinant cytochrome P450 enzymes. Nature of the data set: P450 reaction phenotyping analysis. The format is biochemical. The conditions noted are these: each recombinant CYP 2.5 nM, 37 °C, 30 min.
In another data set the test system is FMO1, FMO3, FMO5. Nature of the data set: Oxidative metabolism of NFa in FMOs. In kind it is in vitro ADME. The conditions noted are these: NFa 20 μM, NADPH, 30 min.
The next data set has as its system Hep3B cells. The data set can be described thus: Cell-membrane permeability in Hep3B cells. In kind it is cell-based. The conditions noted are these: 20 μM, 60 min.
In data set [8] the test system is MCF‐7, Hep3B, and U87 cells. The data set can be described thus: Cytotoxicity assays. In kind it is cell-based.
A short description of data set [9]: In vivo inhibitory effect against CYP3A4 (pharmacokinetics of NFa with inhibitor). On the set-up: species or system C57 mice. The conditions noted are these: C57, mouse, plasma, po, 20 mg/kg, mice plasma; for AUC: read-out: AUC(0‐inf).
Another data set relates to CYP3A. The data set can be described thus: Functional imaging of CYP3A4 in mouse liver tissue slices. The conditions noted are these: pre‐incubated 1 h, inhibitor 20 µM.
Data set [10] deals with T1, CYP3A4. Nature of the data set: in vitro. The settings on record: pH 7.4.
In the next data set the target is hCYP3A4 in HLMs (Homo sapiens, UniProt P08684). The data set can be described thus: NFa-based screening and characterizing of hCYP3A4 inhibitors in HLMs.
The target in data set [11] is T1, CYP3A4. Described as above. The conditions noted are these: human, human liver microsomes, pH 7.4, probe NFa (4-hydroxylation to 4-HNFa). Background: Liver microsomes are a subcellular fraction often used to study metabolism.
Data set [12] deals with T1, CYP3A4. Nature of the data set: NFa-based inhibition assay in recombinant hCYP3A4. The conditions noted are these: read-out: IC50 against CYP3A4‐catalyzed NFa 4‐hydroxylation. On the set-up: purchased Cypex. In kind it is biochemical.
Data set [13] deals with T1, CYP3A4. Nature of the data set: Inhibitory effect of D13 in CHO-3A4 stably transfected cell line. In kind it is cell-based. On the set-up: expressed in transfected cells; host or cells: CHO-3A4 stably transfected cell line. The conditions noted are these: CHO-3A4 cells, D13 1 h, NFa 10 μM 30 min; read-out: inhibitory effect (IC50) in living cells.
The subject of data set [14] is CYP3A4. The data set can be described thus: Liver organ imaging in the presence of CYP3A4 inhibitor (ex vivo). The settings on record: mouse, excised whole liver tissue (ex vivo), probe NFa (50 µM); whole mice liver, inhibitor 1 h, NFa 50 µM 30 min; read-out: IC50 (4‐HNFa levels in liver tissue).
Data set [15] concerns CYP3A4. The data set can be described thus: In vivo inhibitory effect against CYP3A4 (pharmacokinetics of NFa with inhibitor). On the set-up: species or system C57 mice. The conditions noted are these: inhibitor 50 mg/kg i.g., NFa 20 mg/kg i.g., mice.
The test system of data set [16] is CYP3A4. On the set-up: method as in PMID 22971642. The settings on record: RTV 50 mg kg^−1, mice; cited from earlier work.
The mark [17] stands for this setting: mouse, plasma, po, 20 mg/kg, i.g.
[18] abbreviates: NFa 20 mg/kg i.g. with D13 50 mg/kg i.g.
[19] abbreviates: NFa 20 mg/kg i.g. with RTV 50 mg/kg i.g.
[20] abbreviates: NFa 20 mg/kg i.g., control group CMC‐Na.

T1 sequence (P08684 whole entry): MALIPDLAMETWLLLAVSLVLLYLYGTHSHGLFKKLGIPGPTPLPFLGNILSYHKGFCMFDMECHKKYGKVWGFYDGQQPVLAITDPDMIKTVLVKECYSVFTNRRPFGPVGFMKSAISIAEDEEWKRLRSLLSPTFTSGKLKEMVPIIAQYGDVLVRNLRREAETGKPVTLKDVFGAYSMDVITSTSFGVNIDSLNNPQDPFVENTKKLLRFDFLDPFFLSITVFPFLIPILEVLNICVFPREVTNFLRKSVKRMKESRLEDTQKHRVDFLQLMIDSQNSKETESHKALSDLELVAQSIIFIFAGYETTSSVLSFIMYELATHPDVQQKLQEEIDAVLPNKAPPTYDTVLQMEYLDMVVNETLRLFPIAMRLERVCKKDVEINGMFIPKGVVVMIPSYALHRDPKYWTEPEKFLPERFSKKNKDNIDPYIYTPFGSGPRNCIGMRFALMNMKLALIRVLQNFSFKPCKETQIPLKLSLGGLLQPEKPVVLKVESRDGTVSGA
hCYP3A4 in HLMs, sequence (P08684 whole entry): as above
T3 sequence (P08183 whole entry): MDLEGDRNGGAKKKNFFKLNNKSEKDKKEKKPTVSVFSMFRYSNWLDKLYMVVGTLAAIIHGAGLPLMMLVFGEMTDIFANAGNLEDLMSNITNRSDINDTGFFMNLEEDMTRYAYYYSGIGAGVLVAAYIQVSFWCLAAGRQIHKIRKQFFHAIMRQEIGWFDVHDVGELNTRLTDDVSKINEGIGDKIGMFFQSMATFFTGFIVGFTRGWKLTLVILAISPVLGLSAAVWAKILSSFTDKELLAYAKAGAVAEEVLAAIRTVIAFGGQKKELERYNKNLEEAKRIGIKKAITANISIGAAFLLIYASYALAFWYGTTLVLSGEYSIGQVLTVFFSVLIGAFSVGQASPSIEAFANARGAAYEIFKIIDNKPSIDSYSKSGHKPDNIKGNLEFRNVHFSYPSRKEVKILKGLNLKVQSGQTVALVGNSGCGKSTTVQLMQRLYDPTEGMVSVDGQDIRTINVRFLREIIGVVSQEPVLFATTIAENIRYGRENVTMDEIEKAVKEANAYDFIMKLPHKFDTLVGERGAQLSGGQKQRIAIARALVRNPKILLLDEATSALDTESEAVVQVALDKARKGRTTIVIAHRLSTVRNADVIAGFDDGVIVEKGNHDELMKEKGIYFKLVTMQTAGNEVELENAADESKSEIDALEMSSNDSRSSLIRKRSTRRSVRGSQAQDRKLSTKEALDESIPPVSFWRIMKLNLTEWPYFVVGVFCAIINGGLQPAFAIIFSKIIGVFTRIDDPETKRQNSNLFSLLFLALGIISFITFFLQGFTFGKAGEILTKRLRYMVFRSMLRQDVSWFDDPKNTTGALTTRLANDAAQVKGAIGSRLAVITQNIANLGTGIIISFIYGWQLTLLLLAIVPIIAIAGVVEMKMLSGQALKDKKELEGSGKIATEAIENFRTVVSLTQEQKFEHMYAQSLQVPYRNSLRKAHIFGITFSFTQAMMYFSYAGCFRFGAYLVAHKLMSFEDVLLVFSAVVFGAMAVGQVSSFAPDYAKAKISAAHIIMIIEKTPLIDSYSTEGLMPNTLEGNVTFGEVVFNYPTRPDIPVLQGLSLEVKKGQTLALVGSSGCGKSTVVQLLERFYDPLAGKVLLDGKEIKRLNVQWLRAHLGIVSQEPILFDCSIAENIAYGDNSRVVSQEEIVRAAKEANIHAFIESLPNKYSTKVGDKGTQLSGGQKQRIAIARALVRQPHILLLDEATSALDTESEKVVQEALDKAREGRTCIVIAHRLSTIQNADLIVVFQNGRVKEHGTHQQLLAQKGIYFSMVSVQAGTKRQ

In the case of `O=C1c2cccc3cccc(c23)C(=O)N1Cc1cscn1` [NFa, N-(4-Thiazolemethanamino)-naphtahlimide], the “limit of detection for sensing hCYP3A4” value on CYP3A4 [1] came to 0.047 nM. Moreover, the “interference from endogenous fatty acids, amino acids, and cations on NFa 4‐hydroxylation by hCYP3A4” value on CYP3A4 [1] (NFa 10 μM, 37 ℃, 30 min) is listed as “no interference”. Moreover, the “enhancement in fluorescence emission ≈555 nM” value on CYP3A4 [1] (NFa 10 µM, hCYP3A4 10 nM, 37 °C, 30 min, λex 450) is 154 fold. For the same molecule, the Oral bioavailability in data set [2] (20 mg/kg i.g. vs 2 mg/kg i.v.) is recorded as 15.27%. Further, in [2] (mouse, plasma, iv, 2 mg/kg), the AUC(0-inf) came out at 439 ± 40.7 ng·h/mL, the Cmax is 913 ± 116 ng/mL, the Tmax is 0.083 h and the half-life was 1.24 ± 0.39 h. Also, the bioavailability in [2] (mouse, plasma, oral, 20 mg/kg, 20 mg/kg i.g. vs 2 mg/kg i.v.) is 15.3%. Besides, in [2] (setting [17]), the area under the curve AUC(0-inf) was determined as 670 ± 232 ng·h/mL, the Cmax worked out at 250 ± 90 ng/mL, the Tmax worked out at 1.17 ± 0.41 h and the half-life was 1.55 ± 0.61 h. Further, in [3], the “biochemical assays and H&E staining findings” value was “no haematotoxicity, organ injuries, or apparent abnormalities”; the body weight result is “gradual increase”; the mortality entry is given as “no mortality”. The “enhancement of cell‐membrane permeability versus NEN” value in the data set on NCM460 cells came out at 28 fold. The molecule further registered a K m on CYP3A4 [4] of 13.33 ± 1.01 µM. The “participation of AO in the oxidative metabolism” value on aldehyde oxidase (AO) is given as “did not participate”. Besides, the “Pearson's coefficient of co‐localization with ER‐Tracker Red” value on CYP3A4 [5] is 0.99. In [6], the “Molar extinction coefficient ε” value came to 44300 M⁻¹ cm⁻¹, the “maximum UV absorption” value is 340 and the maximum fluorogenic emission stood at 390 nm. Also, the “P‐gp substrate status” value on P-gp was “non‐substrate for P‐gp”. The “isoform specificity as P450 substrate” value in data set [7] is “highly specific substrates for hCYP3A4”. The “participation of FMOs in the oxidative metabolism” value with FMO1, FMO3, FMO5 is “did not participate”. In addition, the “enhancement of cell‐membrane permeability versus NEN” value with Hep3B cells was found to be 5.6 fold. Moreover, the cytotoxicity result in [8] is listed as “weak cytotoxicity”. Also, in [9] (setting [18]), the Cmax was found to be 498 ± 209 ng/mL, the Tmax was determined as 0.7 ± 0.27 h, the half-life is 6.37 ± 4.65 h and the AUC came out at 4630 ± 2230 ng·h/mL. Besides, in data set [9] (setting [19]), the Cmax is 494 ± 131 ng/mL, the Tmax worked out at 0.95 ± 0.67 h, the half-life is 8.09 ± 7.52 h and the AUC is 5800 ± 5000 ng·h/mL. In data set [9] (setting [20]), the Cmax is 210 ± 125 ng/mL, the Tmax was 1.25 ± 0.61 h, the half-life is 2.22 ± 0.94 h and the AUC is 642 ± 146 ng·h/mL.

For the molecule `CC(=O)N1CCN(c2ccc(OCC3COC(Cn4ccnc4)(c4ccc(Cl)cc4Cl)O3)cc2)CC1` (centres unmarked) [KET, ketoconazole, reference compound], the “effect on NFa green signals in mouse liver slices” value in the data set with CYP3A is listed as “significantly blocked”. The molecule further displayed an activity at 30 min, 1 µM at CYP3A4 [10] of 1.91%.

Turning to `O=C(/C=C/c1ccc2cnccc2c1)c1ccc(N2CCCC2)cc1` [D13, (E)-3-(isoquinolin-6-yl)-1-(4-(pyrrolidin-1-yl)phenyl)prop-2-en-1-one], the IC50 was 13.6 nM at hCYP3A4 in HLMs, 10.9 nM on CYP3A4 [12], 25.4 nM on CYP3A4 [13] and 270 ± 50 nM in the data set on CYP3A4 [14]. At hCYP3A4 in HLMs (inhibitor 1 μM, HLMs, NFa as fluorogenic substrate), the Residual activity entry was “completely inhibited”. Further, the activity at 30 min, 1 µM on CYP3A4 [11] came to 4.08%. Further, the “Ratio of AUC(0‐inf) of NFa (inhibitor group / control group)” value in the data set on CYP3A4 [15] is reported as 7.22. Besides, the “Ratio of C max of NFa (inhibitor group / control group)” value in the data set with CYP3A4 [15] stood at 2.37. Further, the “Ratio of T max of NFa (inhibitor group / control group)” value in the data set with CYP3A4 [15] was 0.56. Moreover, in the data set on CYP3A4 [15], the “Ratio of t 1/2 of NFa (inhibitor group / control group)” value turned out to be 2.87.

`CC(C)c1nc(CN(C)C(=O)N[C@H](C(=O)N[C@@H](Cc2ccccc2)C[C@H](O)[C@H](Cc2ccccc2)NC(=O)OCc2cncs2)C(C)C)cs1` [RTV, Ritonavir]: the “increase of AUCinf of midazolam (oral) when co‐administered with RTV” value in the data set with CYP3A4 [16] is given as “five‐fold”.
